Experimental data from PubChem BioAssay AID2060332 (Molecular Pharmacology Branch, DTP, NCI, 2025).
pIC50: −log10 of the molar value.

System: LG0567-F671-PDC multi-cell spheroid viability
Assay: Anticancer human tumor LG0567-F671-PDC patient-derived lung adenocarcinoma cell line growth inhibition [IpAb]
Settings: for pIC50: curve of first compound; for viability, T/C: stronger effect = lower value
Method in brief: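 Spheroids of 60% malignant cells, 25% HUVEC and 15% MSC were exposed to targeted agents combined with ipatasertib or abemaciclib. Doses started at or near clinical Cmax (10 microM when unknown) and fell in half-log steps.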

[1] = second compound 0.01 µM, first compound 0.0316 µM
[2] = second compound 0.01 µM, first compound 0.1 µM
[3] = second compound 0.01 µM, first compound 0.316 µM
[4] = second compound 0.01 µM, first compound 1 µM
[5] = second compound 0.01 µM, first compound 3.16 µM
[6] = second compound 0.01 µM, first compound 10 µM
[7] = second compound 0.0316 µM, first compound 0.0316 µM
[8] = second compound 0.0316 µM, first compound 0.1 µM
[9] = second compound 0.0316 µM, first compound 0.316 µM
[10] = second compound 0.0316 µM, first compound 1 µM
[11] = second compound 0.0316 µM, first compound 3.16 µM
[12] = second compound 0.0316 µM, first compound 10 µM
[13] = second compound 0.1 µM, first compound 0.0316 µM
[14] = second compound 0.1 µM, first compound 0.1 µM
[15] = second compound 0.1 µM, first compound 0.316 µM
[16] = second compound 0.1 µM, first compound 1 µM
[17] = second compound 0.1 µM, first compound 3.16 µM
[18] = second compound 0.1 µM, first compound 10 µM
[19] = second compound 0.316 µM, first compound 0.0316 µM
[20] = second compound 0.316 µM, first compound 0.1 µM
[21] = second compound 0.316 µM, first compound 0.316 µM
[22] = second compound 0.316 µM, first compound 1 µM
[23] = second compound 0.316 µM, first compound 3.16 µM
[24] = second compound 0.316 µM, first compound 10 µM
[25] = second compound 1 µM, first compound 0.0316 µM
[26] = second compound 1 µM, first compound 0.1 µM
[27] = second compound 1 µM, first compound 0.316 µM
[28] = second compound 1 µM, first compound 1 µM
[29] = second compound 1 µM, first compound 3.16 µM
[30] = second compound 1 µM, first compound 10 µM
[31] = second compound 3.16 µM, first compound 0.0316 µM
[32] = second compound 3.16 µM, first compound 0.1 µM
[33] = second compound 3.16 µM, first compound 0.316 µM
[34] = second compound 3.16 µM, first compound 1 µM
[35] = second compound 3.16 µM, first compound 3.16 µM
[36] = second compound 3.16 µM, first compound 10 µM
[37] = second compound 10 µM, first compound 0.0316 µM
[38] = second compound 10 µM, first compound 0.1 µM
[39] = second compound 10 µM, first compound 0.316 µM
[40] = second compound 10 µM, first compound 1 µM
[41] = second compound 10 µM, first compound 3.16 µM
[42] = second compound 10 µM, first compound 10 µM
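Note: viability read after 7 days of drug exposure.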
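Throughout, for viability, T/C: 100% = DMSO vehicle control luminescence.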

Structure (SMILES)	pIC50 (second compound 0.1 µM)	pIC50 (second compound 0.316 µM)	pIC50 (second compound 1 µM)	viability, T/C [13]	viability, T/C [14]	viability, T/C [15]	viability, T/C [16]	viability, T/C [17]	viability, T/C [18]	viability, T/C [19]	viability, T/C [20]	viability, T/C [21]	viability, T/C [22]	viability, T/C [23]	viability, T/C [24]	viability, T/C [25]	viability, T/C [26]	viability, T/C [27]	viability, T/C [28]	viability, T/C [29]	other results
CC1(C)CCC(CN2CCN(c3ccc(C(=O)NS(=O)(=O)c4ccc(NCC5CCOCC5)c([N+](=O)[O-])c4)c(Oc4cnc5[nH]ccc5c4)c3)CC2)=C(c2ccc(Cl)cc2)C1 + CCN1CCN(Cc2ccc(Nc3ncc(F)c(-c4cc(F)c5nc(C)n(C(C)C)c5c4)n3)nc2)CC1	5.23	5.31	5.33	80.5%	86.9%	83.2%	84.5%	83%	22.2%	69.6%	76.1%	80.8%	76.9%	73.3%	11.4%	69.6%	80.3%	64%	68.8%	67.1%	pIC50 (second compound 0.01 µM): 5.14; pIC50 (second compound 0.0316 µM): 5.24; viability, T/C [1]: 96.5%; viability, T/C [2]: 123%; viability, T/C [3]: 106%; viability, T/C [4]: 105%; viability, T/C [5]: 119%; viability, T/C [6]: 25.9%; viability, T/C [7]: 63.6%; viability, T/C [8]: 95.8%; viability, T/C [9]: 87.1%; viability, T/C [10]: 72.2%; viability, T/C [11]: 83.2%; viability, T/C [12]: 22.6%; viability, T/C [30]: 17.5%
Cn1nccc1Nc1nccc(-c2ccn(C(CO)c3ccc(Cl)c(F)c3)c(=O)c2)n1 (stereo not given) + CC(C)NCC(C(=O)N1CCN(c2ncnc3c2C(C)CC3O)CC1)c1ccc(Cl)cc1	6.89	7.10	6.82	60.9%	51.7%	44.4%	34.2%	29.1%	23.9%	62.1%	45.6%	36.7%	32.7%	26%	21.3%	62.4%	52.9%	43.8%	25.9%	20.2%	pIC50 (second compound 3.16 µM): 6.80; pIC50 (second compound 10 µM): 6.72; viability, T/C [30]: 15.9%; viability, T/C [31]: 67.2%; viability, T/C [32]: 58%; viability, T/C [33]: 38.6%; viability, T/C [34]: 31.7%; viability, T/C [35]: 19.3%; viability, T/C [36]: 9.79%; viability, T/C [37]: 60.1%; viability, T/C [38]: 57.4%; viability, T/C [39]: 44.8%; viability, T/C [40]: 27.2%; viability, T/C [41]: 16.7%; viability, T/C [42]: 9.92%
CCCS(=O)(=O)Nc1ccc(F)c(C(=O)c2c[nH]c3ncc(-c4ccc(Cl)cc4)cc23)c1F + CCN1CCN(Cc2ccc(Nc3ncc(F)c(-c4cc(F)c5nc(C)n(C(C)C)c5c4)n3)nc2)CC1	< 5.00	< 5.00	< 5.00	77.4%	98.8%	91.6%	113%	154%	92.1%	68.8%	86.3%	91.7%	108%	80.1%	55.4%	66.9%	88.3%	73.7%	70.4%	76.9%	pIC50 (second compound 0.01 µM): < 5.00; pIC50 (second compound 0.0316 µM): < 5.00; viability, T/C [1]: 104%; viability, T/C [2]: 140%; viability, T/C [3]: 112%; viability, T/C [4]: 145%; viability, T/C [5]: 169%; viability, T/C [6]: 168%; viability, T/C [7]: 93.3%; viability, T/C [8]: 105%; viability, T/C [9]: 140%; viability, T/C [10]: 121%; viability, T/C [11]: 156%; viability, T/C [12]: 115%; viability, T/C [30]: 65.1%
CCCS(=O)(=O)Nc1ccc(F)c(C(=O)c2c[nH]c3ncc(-c4ccc(Cl)cc4)cc23)c1F + CC(C)NCC(C(=O)N1CCN(c2ncnc3c2C(C)CC3O)CC1)c1ccc(Cl)cc1	< 5.00	< 5.00	< 5.00	100%	119%	111%	137%	162%	147%	77.1%	90.5%	94.5%	114%	127%	140%	77.3%	78.6%	88.3%	115%	124%	pIC50 (second compound 3.16 µM): < 5.00; pIC50 (second compound 10 µM): < 5.00; viability, T/C [30]: 82%; viability, T/C [31]: 88.3%; viability, T/C [32]: 82.5%; viability, T/C [33]: 93.8%; viability, T/C [34]: 102%; viability, T/C [35]: 82.9%; viability, T/C [36]: 77.5%; viability, T/C [37]: 88.3%; viability, T/C [38]: 64.1%; viability, T/C [39]: 77%; viability, T/C [40]: 84.9%; viability, T/C [41]: 70.3%; viability, T/C [42]: 57.7%
